Assay results reported in US12194105B2, “Composition and method for new antimicrobial agents with secondary mode of action provided by conjugation of an antimicrobial to a guanidinium-rich molecular transporter” (The Board of Trustees of the Leland Stanford Junior …, priority 2018, dated 2025).
Converted amounts (≈) assume the structure as drawn. “Also recorded” adds a separate entry of the source. Where two headings read alike, the source gives them in different places.

How the values were obtained:
MRSA (USA400MW2) [1] = test system: MRSA (USA400MW2)
Procedure: (§1) MICS were determined using broth microdilution in accordance with CLSI methods.^6 One day prior to each MIC experiment, bacterial strains were streaked for single colonies from frozen glycerol stocks stored at −80° C. on Tryptic soy agar. 3-5 colonies from each plate were harvested with a disposable inoculating loop and resuspended in 500 μL PBS. This suspension was diluted in sterile-filtered PBS to an OD of 0.1(˜1×10^8 CFU/ml), and the OD 0.1 suspension was diluted 1:100 in Mueller-Hinton Broth (MHB, Difco 257530) just prior to inoculating the 96-well polypropylene treatment plate. The treatment plate was prepared as follows: 20-fold stocks of the highest concentration of compound tested were prepared in sterile-filtered PBS and were subsequently diluted in MHB to prepare working stocks at 2-times the final concentration. 100 μL of each working stock was placed in the highest concentration treatment well, and the working stocks were 2-fold serially diluted in MHB to lend final treatment volumes of 50 μL/well. 50 μL of adjusted inoculum was added to each well to lend a total volume of 100 μL/well and a final inoculum density of ˜5×10^5 colony forming units (CFU/ml). 10 μL of inoculum in growth control wells was serially diluted in PBS and plated on Tryptic soy agar to verify accurate starting density of cells. Growth controls were included in each plate, where no treatment was applied, along with media only controls. Edge wells were filled with PBS. The completed assay plate was sealed with parafilm, placed in a lidded plastic tray lined with moistened paper towels, and incubated at 37° C. for 18-20 h.

MRSA USA300 biofilms = test: Biofilm reduction in vitro after 5 h treatment, Calgary Biofilms Device; format: cell-based, Staphylococcus aureus; details: for Log CFU/ml counts: 5 h treatment, median (IQR), untreated 4.5, detection limit 2 Log
MRSA USA400 MW2 = test: Time-kill in MHB; format: cell-based, Staphylococcus aureus; details: 20 μM; detection limit 2.3 Log(CFU/ml)
Procedure: FIG. 9. Influence of V and V-r8 (both at 20 μM) on cell viability for MRSA USA400 MW2 in MHB.

planktonic S. aureus = test: Antibacterial activity against planktonic bacteria (summary over strains); details: in words
Procedure: (§2) Determination of MICs. MICS were determined using broth microdilution in accordance with CLSI methods.^6 One day prior to each MIC experiment, bacterial strains were streaked for single colonies from frozen glycerol stocks stored at −80° C. on Tryptic soy agar. 3-5 colonies from each plate were harvested with a disposable inoculating loop and resuspended in 500 μL PBS. This suspension was diluted in sterile-filtered PBS to an OD of 0.1(˜1×10^8 CFU/ml), and the OD 0.1 suspension was diluted 1:100 in Mueller-Hinton Broth (MHB, Difco 257530) just prior to inoculating the 96-well polypropylene treatment plate. The treatment plate was prepared as follows: 20-fold stocks of the highest concentration of compound tested were prepared in sterile-filtered PBS and were subsequently diluted in MHB to prepare working stocks at 2-times the final concentration. 100 μL of each working stock was placed in the highest concentration treatment well, and the working stocks were 2-fold serially diluted in MHB to lend final treatment volumes of 50 μL/well. 50 μL of adjusted inoculum was added to each well to lend a total volume of 100 μL/well and a final inoculum density of ˜5×10^5 colony forming units (CFU/ml). 10 μL of inoculum in growth control wells was serially diluted in PBS and plated on Tryptic soy agar to verify accurate starting density of cells. […]

MRSA (USA300LAC) [2] = test system: MRSA (USA300LAC)
Procedure: (§3) Determination of MICs. MICS were determined using broth microdilution in accordance with CLSI methods.^6 One day prior to each MIC experiment, bacterial strains were streaked for single colonies from frozen glycerol stocks stored at −80° C. on Tryptic soy agar. 3-5 colonies from each plate were harvested with a disposable inoculating loop and resuspended in 500 μL PBS. This suspension was diluted in sterile-filtered PBS to an OD of 0.1(˜1×10^8 CFU/ml), and the OD 0.1 suspension was diluted 1:100 in Mueller-Hinton Broth (MHB, Difco 257530) just prior to inoculating the 96-well polypropylene treatment plate. The treatment plate was prepared as follows: 20-fold stocks of the highest concentration of compound tested were prepared in sterile-filtered PBS and were subsequently diluted in MHB to prepare working stocks at 2-times the final concentration. 100 μL of each working stock was placed in the highest concentration treatment well, and the working stocks were 2-fold serially diluted in MHB to lend final treatment volumes of 50 μL/well. 50 μL of adjusted inoculum was added to each well to lend a total volume of 100 μL/well and a final inoculum density of ˜5×10^5 colony forming units (CFU/ml). 10 μL of inoculum in growth control wells was serially diluted in PBS and plated on Tryptic soy agar to verify accurate starting density of cells. Growth controls were included in each plate, where no treatment was applied, along with media only controls. Edge wells were filled with PBS. The completed assay plate was sealed with parafilm, placed in a lidded plastic tray lined with moistened paper towels, and incubated at 37° C. for 18-20 h.

[3] = 0.05% V-r8, absence of bacteria
Procedure: To examine in vivo cytotoxicity, sterile wounds were generated and inoculated only with water (FIG. 8A) or 0.05% V-r8 (FIG. 8B) in the absence of bacteria. Wound tissue was harvested after 3 days and examined by Hematoxylin & Eosin staining. […] Epi: skin epidermis; Der: skin dermis. Scale bar represents 100 μm. Images are representative of 3 independent samples.
In vivo histological cytotoxicity assessment. […] Samples were fixed in 4% paraformaldehyde in PBS and incubated in 20% sucrose for 24 hours. Tissues were then embedded into Optical Cutting Temperature (OCT) compound (Sakura, California) and snap frozen in liquid nitrogen. 12 μm sections were obtained on a Leica CM1860 UV cryotome (Leica Biosystems, Ernst-Leitz Strasse, Germany), stained with hemotoxylin and eosin (H&E), and visualized using an Axio Scan.Z1 slide scanner (Carl Zeiss, Göttingen, Germany) under 20×/0.8 Apochrome objective as previously described.

E. faecium Van-Resistant [4] = test system: E. faecium Van-Resistant
Procedure: as §1

MSSA (29213) [5] = test system: MSSA (29213)
Procedure: as §1

[6] = test system: V. cholerae El Tor A1552R
P. aeruginosa PA14 [7] = details: P. aeruginosa PA14, one trial only
Procedure: as §2

[8] = test system: MRSA USA300 LAC persister cells; test: Time-kill of persister cells generated with ciprofloxacin; format: cell-based, Staphylococcus aureus; details: for killing of persister cells: in words
Procedure: FIG. 1. Time-kill study of MRSA USA300 LAC persister cells treated with vancomycin and V-r8. MRSA persister cells were generated by treatment with ciprofloxacin at 40 μM for 6 h. Vancomycin or V-r8 (TFA salt) was then introduced at a concentration of 10 μM. Data points are median Log(CFU/ml) values from 2 independent experiments (N=2) where treatments were performed in singlicate. Error bars represent IQR. Detection limit: 1 Log(CFU/ml).
Evaluation of antibacterial activity against persister cells. USA300 persister cells were generated by diluting an overnight culture of USA300 bacteria 1:1000 in 4 mL MHB and growing to OD 0.5 at 37° C. with 200 rpm shaking. […] Upon 6 h treatment with ciprofloxacin, 500 μL culture aliquots were added to Eppendorf tubes and compounds were added from concentrated stocks (mM range) to yield desired final concentrations (10-20 μM). […] CFU/ml were plated at indicated time points to monitor treatment efficacy. The experiment was performed at least twice on separate days.

V. cholerae = test: Time-kill study of V. cholerae; format: cell-based; details: equivalent concentrations
Procedure: FIG. 11A-11B. Time-kill study of V. cholerae treated with compounds. (FIG. 11A) Treatments were performed at 20 μM in media. (FIG. 11B) Treatments were performed at 2×MIC in PBS. Kan refers to kanamycin, a FDA-approved aminoglycoside. Data points are from a representative experiment. Detection limit=2.3 Log (CFU/ml).

USA300 LAC biofilm wound = test: Murine skin wound excisional biofilm model; details: 0.05% solution topical, 5 h treatment, 24 h post infection, compared to untreated mice
E. coli UTI89 [9] = test system: E. coli UTI89
Procedure: as §1

[10] = test system: MW2 stationary-phase cells; test: Bacterial membrane integrity with SYTOX Green; details: V, V-r8 20 μM; lysostaphin 10×MIC
Source text: V-r8 mode-of-action analysis using stationary-phase MW2. All data points represent the median of biological duplicates from a representative experiment; all experiments were repeated on a different day to ensure reproducibility. V-r8 was the TFA salt, and PBS was used for the cell only control. […] Assay detection limit=2.3. […] Compound data was normalized to cell-only control data.
Evaluation of Bacterial Membrane Integrity with SYTOX Green. The SYTOX Green assay was adapted from the literature. Briefly, to a black wall clear-bottom 96-well plate (Costar 3603) was added 50 μL of PBS per well containing antibiotics at 2-times the indicated concentration. 1 mL of a stationary phase MW2 culture was pelleted at 10,000 g for 1 min and washed 3 times with the same volume of sterile-filtered PBS. The washed cells were diluted to OD600=0.1 (˜4×10^7 CFU/mL) with PBS. SYTOX Green (Molecular Probes) was added to the diluted stationary phase suspension for a final concentration of 5 μM and incubated for 0.5 h at room temperature in the dark. 50 μL of the bacteria/SYTOX Green mixture was added to each well of 96-well plates containing antibiotics and fluorescence was measured at 37° C. with shaking for up to 4 h using a spectrophotometer (SpectraMax M3, Molecular Devices) with excitation and emission wavelengths of 485 and 525 nm, respectively. Lysostaphin (1.25 μg/mL) was used as a positive control. The experiment was performed twice on separate days.

E. coli UTI89 [11] = test: microbe, parasite or virus in culture; details: Escherichia coli, UTI89, read-out: Median MIC
Procedure: as §1

[12] = test system: E. faecalis Van-Resistant; test: microbe, parasite or virus in culture; details: Enterococcus faecalis, read-out: E. faecalis MICs Van-Resistant
Procedure: as §1

[13] = test system: V. cholerae El Tor A1552R; test: microbe, parasite or virus in culture; details: Vibrio cholerae, ELTORA1552R, read-out: Median MIC
[14] = test system: E. faecalis Van-Resistant
Procedure: as §1

[15] = test system: E. faecalis Van-Susceptible; test: microbe, parasite or virus in culture; details: Enterococcus faecalis, read-out: E. faecalis MICs Van-Susceptible
Procedure: as §2

MRSA (USA300LAC) [16] = test: microbe, parasite or virus in culture; details: Staphylococcus aureus, read-out: Minimum Inhibitory Concentration (MIC)
Procedure: as §3

H. pylori = test: MIC, Gram-negative planktonic strains; details: Helicobacter pylori
Procedure: as §2

E. faecium Van-Resistant [17] = test: microbe, parasite or virus in culture; details: Enterococcus faecium, read-out: E. faecium MICs Van-Resistant
Procedure: as §1

MSSA (29213) [18] = test: microbe, parasite or virus in culture; details: Staphylococcus aureus, read-out: Minimum Inhibitory Concentration (MIC)
Procedure: as §1

MRSA (USA400MW2) [19] = test: microbe, parasite or virus in culture; details: Staphylococcus aureus, read-out: Minimum Inhibitory Concentration (MIC)
Procedure: as §1

P. aeruginosa PA14 [20] = test: microbe, parasite or virus in culture; details: Pseudomonas aeruginosa, PA14, read-out: Median MIC
Procedure: as §2

[21] = test system: E. faecium Van-Susceptible; test: microbe, parasite or virus in culture; details: Enterococcus faecium, read-out: E. faecium MICs Van-Susceptible
Procedure: as §2

A. baumannii = test: MIC, Gram-negative planktonic strains; details: Acinetobacter baumannii
Procedure: as §2

[22] = test system: E. faecium Van-Susceptible
Procedure: as §2

[23] = test system: E. faecalis Van-Susceptible
Procedure: as §2

[24] = median (IQR), MSSA (29213), 24 h treatment in media
[25] = median (IQR), MRSA (USA300LAC), 24 h treatment in media

Procedure for MRSA (USA300LAC) biofilm: (§4) Determination of MBECs. Minimum Biofilm Eradication Concentrations (MBECs) were determined in accordance with literature methods. Prior to each assay, 4 mL Tryptic Soy broth (TSB) was inoculated with one colony of S. aureus 29213, MW2 or USA300 and incubated at 37° C., 200 rpm shaking until stationary phase was reached (OD>2). The cultures were adjusted to in TSB to achieve a final inoculum density of 1×10^7 CFU/ml, and 150 μL of inoculum was added to each well of a 96-well base plate (Nunc™ 269787), and a plate lid containing 96 pegs (Nunc™ 445497) was added to the base. The entire apparatus was sealed with parafilm and placed in a sealed plastic bag lined with moistened paper towels for 48 h growth with shaking (150 rpm) at 35° C.
(§5) To prepare biofilm treatment plates, 20-fold stocks of the highest concentration tested were made in sterile-filtered PBS. The 20-fold stocks were diluted in TSB to yield 2-fold working stocks; 200 μL of working stock was added to the highest concentration treatment well and 2-fold serially diluted across the plate to lend final treatment volumes of 100 μL/well. TSB was added to treatment wells to yield final volume of 200 μL/well. PBS was added to the edge wells of the 96-well plate.
(§6) Prior to treatment, 48 h biofilms were rinsed in a 96-well plate containing 200 μL PBS/well for one minute and then the peg lid was transferred to the treatment plate. The plate was parafilmed and incubated at 35° C. for 24 h with 150 rpm shaking. Upon 24 h treatment, the peg lid was removed, rinsed in 200 μL PBS buffer twice for 1 min each, then transferred to a recovery plate containing 200 μL TSB+1% Tween-20 per well. The apparatus was placed in a steel tray and sonicated in a water bath sonicator (Branson 1510) for 10 min to dislodge biofilms. The peg lid was subsequently removed and the media-containing plate was incubated for 20 h at 35° C. with 150 rpm shaking to recover biofilms. The MBEC was read as the lowest treatment concentration where no growth occurred, as determined by measuring by OD600 on a plate reader. […]
Procedure for MRSA (USA400MW2) biofilm: as §4
To prepare biofilm treatment plates, 20-fold stocks of the highest concentration tested were made in sterile-filtered PBS. […]
Prior to treatment, 48 h biofilms were rinsed in a 96-well plate containing 200 μL PBS/well for one minute and then the peg lid was transferred to the treatment plate. […] The MBEC was read as the lowest treatment concentration where no growth occurred, as determined by measuring by OD600 on a plate reader. […]
Procedure for MSSA (29213) biofilm: as §4, §5, §6
Procedure for S. aureus biofilms: as §4, §5
Prior to treatment, 48 h biofilms were rinsed in a 96-well plate containing 200 μL PBS/well for one minute and then the peg lid was transferred to the treatment plate. The plate was parafilmed and incubated at 35° C. for 24 h with 150 rpm shaking. Upon 24 h treatment, the peg lid was removed, rinsed in 200 μL PBS buffer twice for 1 min each, then transferred to a recovery plate containing 200 μL TSB+1% Tween-20 per well. The apparatus was placed in a steel tray and sonicated in a water bath sonicator (Branson 1510) for 10 min to dislodge biofilms. The peg lid was subsequently removed and the media-containing plate was incubated for 20 h at 35° C. with 150 rpm shaking to recover biofilms. The MBEC was read as the lowest treatment concentration where no growth occurred, as determined by measuring by OD600 on a plate reader. The values reported are median values from a minimum of two experiments performed on different days.

CN[C@H](CC(C)C)C(=O)N[C@H]1C(=O)N[C@@H](CC(N)=O)C(=O)N[C@H]2C(=O)N[C@H]3C(=O)N[C@H](C(=O)N[C@H](C(=O)NCCCCCC(=O)N[C@H](CCCNC(=N)N)C(=O)N[C@H](CCCNC(=N)N)C(=O)N[C@H](CCCNC(=N)N)C(=O)N[C@H](CCCNC(=N)N)C(=O)N[C@H](CCCNC(=N)N)C(=O)N[C@H](CCCNC(=N)N)C(=O)N[C@H](CCCNC(=N)N)C(=O)N[C@H](CCCNC(=N)N)C(N)=O)c4cc(O)cc(O)c4-c4cc3ccc4O)[C@H](O)c3ccc(c(Cl)c3)Oc3cc2cc(c3O[C@@H]2O[C@H](CO)[C@@H](O)[C@H](O)[C@H]2O[C@H]2C[C@](C)(N)[C@H](O)[C@H](C)O2)Oc2ccc(cc2Cl)[C@H]1O [V-r8, vancomycin-D-octaarginine]
Minimum Inhibitory Concentration (MIC) (MRSA (USA400MW2) [1]; median (IQR), MRSA (USA400MW2)): 0.94 (0.2) μM | Log CFU/ml counts (MRSA USA300 biofilms; 16 μM in PBS): 2.2 (0.2) Log CFU/ml | Log CFU/ml counts (MRSA USA300 biofilms; 32 μM in PBS): 2.0 (0) Log CFU/ml | biofilm-associated MRSA eradicated (MRSA USA300 biofilms; 5 h treatment at 16 and 32 μM): 98% | cell killing, time-kill in MHB (MRSA USA400 MW2): rapid killing; also recorded: eradicated MRSA to the CFU/ml detection limit | antimicrobial activity against planktonic S. aureus (planktonic S. aureus): single digit micromolar | Minimum Inhibitory Concentration (MIC) (MRSA (USA300LAC) [2]; median (IQR), MRSA (USA300LAC)): 2.0 (0.1) μM | Minimum Biofilm Eradication Concentration (MBEC) (MSSA (29213) biofilm; [24]): 16 µM | acute toxicity, open wound [3]: no acute toxicity | improvement against VRE faecium (over vancomycin) (E. faecium Van-Resistant [4]): 128 fold | Minimum Inhibitory Concentration (MIC) (MSSA (29213) [5]; median (IQR), MSSA (29213)): 1.6 (0.5) μM | better potency over vancomycin in diminishing growth of biofilm-associated bacteria (S. aureus biofilms; in PBS): 160 fold | better potency over vancomycin in diminishing growth of biofilm-associated bacteria (S. aureus biofilms; in media): > 31 fold | minimum biofilm eradication concentrations (MBECs) (S. aureus biofilms; range over S. aureus strains of Table 1): 2.5 to 16 µM | Median MIC [6]: 10 µM | Median MIC (P. aeruginosa PA14 [7]): >32 µM | efficacy against persister cells relative to vancomycin ([8]; at 20 μM): > 1500 fold | killing of persister cells [8]: enhanced killing of persister cells | killing relative to V, r8 and untreated cells (V. cholerae; after 4 h): ~5 orders of magnitude | higher killing than kanamycin (V. cholerae; over the first 2 h): 2-3 orders of magnitude | reduction in biofilm bacterial load (CFU/wound) (USA300 LAC biofilm wound): significant reduction; also recorded: as effective as 2% fusidic acid | Minimum Biofilm Eradication Concentration (MBEC) (MRSA (USA300LAC) biofilm; [25]): 9.5 µM | Median MIC (E. coli UTI89 [9]; E. coli UTI89): ≥32 µM | SYTOX Green uptake (membrane damage) [10]: no SYTOX Green uptake

CN[C@H](CC(C)C)C(=O)N[C@H]1C(=O)N[C@@H](CC(N)=O)C(=O)N[C@H]2C(=O)N[C@H]3C(=O)N[C@H](C(=O)N[C@H](C(=O)O)c4cc(O)cc(O)c4-c4cc3ccc4O)[C@H](O)c3ccc(c(Cl)c3)Oc3cc2cc(c3O[C@@H]2O[C@H](CO)[C@@H](O)[C@H](O)[C@H]2O[C@H]2C[C@](C)(N)[C@H](O)[C@H](C)O2)Oc2ccc(cc2Cl)[C@H]1O [Vancomycin]
MIC (E. coli UTI89 [11]): > 128 µM | MIC [12]: 128 µM (≈ 186 µg/mL) | MIC [13]: 100 µM (≈ 145 µg/mL) | Log CFU/ml counts (MRSA USA300 biofilms; 16 μM in PBS): 4.3 (0.3) Log CFU/ml | Log CFU/ml counts (MRSA USA300 biofilms; 32 μM in PBS): 5.1 (1.0) Log CFU/ml | killing of biofilms after 5 h treatment (MRSA USA300 biofilms; 16 and 32 μM, in words): ineffective | increase of MIC in VRE faecalis ([14]; resistant versus susceptible): > 85 fold | cell killing, time-kill in MHB (MRSA USA400 MW2): required longer treatment time | Minimum Biofilm Eradication Concentration (MBEC) (MSSA (29213) biofilm; [24]): ≥500 µM | MIC [15]: 1.5 µM (≈ 2.17 µg/mL) | increase of MIC in VRE faecium (E. faecium Van-Resistant [4]; resistant versus susceptible): > 1350 fold | MIC (MRSA (USA300LAC) [16]): 0.5 µM (≈ 0.725 µg/mL) | MIC (H. pylori): > 32 µM | MIC (E. faecium Van-Resistant [17]): 512 µM (≈ 742 µg/mL) | MIC (MSSA (29213) [18]): 0.5 µM (≈ 0.725 µg/mL) | MIC (MRSA (USA400MW2) [19]): 0.5 µM (≈ 0.725 µg/mL) | MIC (P. aeruginosa PA14 [20]): > 256 µM | killing of persister cells [8]: ineffective | reduction in biofilm bacterial load (CFU/wound) (USA300 LAC biofilm wound): not statistically significant | MIC [21]: 0.375 µM (≈ 0.543 µg/mL) | Minimum Biofilm Eradication Concentration (MBEC) (MRSA (USA300LAC) biofilm; [25]): ≥400 µM | MIC (A. baumannii): > 32 µM | SYTOX Green uptake (membrane damage) [10]: no SYTOX Green uptake | Minimum Biofilm Eradication Concentration (MBEC) (MRSA (USA400MW2) biofilm; median (IQR), MRSA (USA400MW2), 24 h treatment in media): ≥500 µM

N=C(N)NCCC[C@@H](N)C(=O)N[C@H](CCCNC(=N)N)C(=O)N[C@H](CCCNC(=N)N)C(=O)N[C@H](CCCNC(=N)N)C(=O)N[C@H](CCCNC(=N)N)C(=O)N[C@H](CCCNC(=N)N)C(=O)N[C@H](CCCNC(=N)N)C(=O)N[C@H](CCCNC(=N)N)C(N)=O [r8, octa-D-arginine]
Minimum Inhibitory Concentration (MIC) (MRSA (USA400MW2) [1]; USA400): 20 (0) μM | E. faecalis MICs Van-Resistant ([14]; Van-Resistant): >64 µM | Minimum Inhibitory Concentration (MIC) (MRSA (USA300LAC) [2]; USA300): 40 (0) μM | Minimum Biofilm Eradication Concentration (MBEC) (MSSA (29213) biofilm; 29213) biofilm, 24 h): >80 µM | E. faecium MICs Van-Susceptible [22]: >64 µM | E. faecium MICs Van-Resistant (E. faecium Van-Resistant [4]; Van-Resistant): >128 µM | Minimum Inhibitory Concentration (MIC) (MSSA (29213) [5]; 29213): 60 (20) μM | ability to eradicate biofilms (S. aureus biofilms; in words): unable to eradicate biofilms | E. faecalis MICs Van-Susceptible [23]: >64 µM | killing of persister cells [8]: no activity | Minimum Biofilm Eradication Concentration (MBEC) (MRSA (USA300LAC) biofilm; USA300, 24 h): >80 µM | Median MIC (E. coli UTI89 [9]; UTI89): 36 µM | Minimum Biofilm Eradication Concentration (MBEC) (MRSA (USA400MW2) biofilm; USA400, 24 h): >80 µM

Lysostaphin: an antibacterial enzyme that induces membrane permeabilization, positive control
SYTOX Green uptake (membrane damage) [10]: Rapid uptake of SYTOX Green
